Measured values published in PubChem BioAssay AID248 (DTP/NCI, 2004).
Values joined by “and” are separate entries in the source; they are usually repeats but may differ in a detail not shown here. Equal values may be shown once. Toxic doses and inconclusive results are not listed. Rule as the data show it: active = T/C of 150% or more; inactive = T/C below 125%.

System: L1210 leukemia ip in BDF1 mice, survival T/C
Assay: NCI In Vivo Anticancer Drug Screen. Data for tumor model L1210 Leukemia (intraperitoneal) in B6D2F1 (BDF1) mice
Conditions: endpoint: mean survival time, higher = longer survival
How it was run: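 Read-out is survival time, reported as the treated-group measurement over the vehicle-control measurement.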

[1] = dose: 200.0 mg/kg/injection, schedule: Q01DX009 (ip), vehicle: saline with Tween-80
[2] = dose: 100.0 mg/kg/injection, schedule: Q01DX001 (ip), vehicle: saline
[3] = dose: 200.0 mg/kg/injection, schedule: Q01DX001 (ip), vehicle: saline
[4] = dose: 400.0 mg/kg/injection, schedule: Q01DX001 (ip), vehicle: saline
[5] = dose: 100.0 mg/kg/injection, schedule: Q01DX009 (ip), vehicle: saline with Tween-80
[6] = dose: 400.0 mg/kg/injection, schedule: Q01DX009 (ip), vehicle: saline with Tween-80

Measured: T/C

CN=C(Nc1ccc(Cl)c(Cl)c1)C(C)C
inactive: dose: 6.25 mg/kg/injection, schedule: Q04DX002 (ip), vehicle: DMSO 98 % of control | dose: 12.5 mg/kg/injection, schedule: Q04DX002 (ip), vehicle: DMSO 95 % of control | dose: 25.0 mg/kg/injection, schedule: Q04DX002 (ip), vehicle: DMSO 94 % of control and 106 % of control | dose: 44.0 mg/kg/injection, schedule: Q01DX Z (ip), vehicle: methylcellulose (MC) 91 % of control | dose: 50.0 mg/kg/injection, schedule: Q04DX002 (ip), vehicle: DMSO 97 % of control | dose: 66.0 mg/kg/injection, schedule: Q01DX Z (ip), vehicle: methylcellulose (MC) 98 % of control | dose: 100.0 mg/kg/injection, schedule: Q01DX Z (ip), vehicle: methylcellulose (MC) 101 % of control

O=c1[nH]c2ccccc2c(=O)n1C1CCCCC1
inactive: dose: 25.0 mg/kg/injection, schedule: Q01DX009 (ip), vehicle: water 96 % of control | dose: 50.0 mg/kg/injection, schedule: Q01DX009 (ip), vehicle: water 94 % of control | dose: 100.0 mg/kg/injection, schedule: Q01DX009 (ip), vehicle: water 103 % of control | dose: 200.0 mg/kg/injection, schedule: Q01DX009 (ip), vehicle: water 98 % of control | dose: 400.0 mg/kg/injection, schedule: Q01DX009 (ip), vehicle: water 101 % of control

NCC1COc2ccccc2N1 (stereo unspecified)
inactive: dose: 100.0 mg/kg/injection, schedule: Q04DX002 (ip), vehicle: other 108 % of control | dose: 200.0 mg/kg/injection, schedule: Q04DX002 (ip), vehicle: other 101 % of control | dose: 400.0 mg/kg/injection, schedule: Q04DX002 (ip), vehicle: other 111 % of control

CN(C)N=Nc1ccc([N+](=O)[O-])cc1Cl
inactive: dose: 100.0 mg/kg/injection, schedule: Q04DX003 (ip), vehicle: saline with Tween-80 101 % of control | dose: 134.0 mg/kg/injection, schedule: Q01DX009 (ip), vehicle: saline with Tween-80 113 % of control | [1] 115 % of control | dose: 200.0 mg/kg/injection, schedule: Q04DX003 (ip), vehicle: saline with Tween-80 105 % of control | dose: 400.0 mg/kg/injection, schedule: Q04DX003 (ip), vehicle: saline with Tween-80 112 % of control

NNC(=O)c1ncn(C2OC(CO)C(O)C2O)c1C(=O)NN (stereo unspecified)
inactive: dose: 50.0 mg/kg/injection, schedule: Q01DX001 (ip), vehicle: saline 102 % of control | [2] 98 % of control | [3] 102 % of control | [4] 98 % of control

O=C1OCC/C1=C1\CCCO1
inactive: [5] 93 % of control | [1] 100 % of control | [6] 96 % of control

Nc1cc(Cl)ccc1N1CCCCC1
inactive: [5] 114 % of control | [1] 97 % of control | [6] 106 % of control

CC1=COC2CCCCC2O1 (stereo unspecified) (tested in a mixture with another compound)
inactive: dose: 50.0 mg/kg/injection, schedule: Q01DX009 (ip), vehicle: acetone 92 % of control | dose: 100.0 mg/kg/injection, schedule: Q01DX009 (ip), vehicle: acetone 95 % of control | dose: 100.0 mg/kg/injection, schedule: Q04DX003 (ip), vehicle: acetone 103 % of control and 94 % of control | dose: 200.0 mg/kg/injection, schedule: Q04DX003 (ip), vehicle: acetone 104 % of control and 96 % of control and 100 % of control | dose: 400.0 mg/kg/injection, schedule: Q04DX003 (ip), vehicle: acetone 96 % of control and 89 % of control

Oc1ccccc1C=Nc1cccc2c(N=Cc3ccccc3O)cccc12
inactive: dose: 50.0 mg/kg/injection, schedule: Q04DX003 (ip), vehicle: other 89 % of control | [2] 86 % of control | dose: 100.0 mg/kg/injection, schedule: Q04DX003 (ip), vehicle: other 86 % of control | [3] 88 % of control | dose: 200.0 mg/kg/injection, schedule: Q04DX003 (ip), vehicle: other 86 % of control | [4] 86 % of control
